Experimental data from article PMC12275099, “VX-445 (elexacaftor) inhibits chloride secretion across human bronchial epithelial cells by directly blocking KCa3.1 channels” (PNAS Nexus, 2025).
Several values for one entry are separate records, joined by “and”; a condition that tells them apart may be missing. Identical values can stand only once.

Experiments:
[1] = target: T1, KCa3.1 (Homo sapiens, UniProt O15554); assay: Excised inside-out patch-clamp on HEK-KCa3.1; type: biochemical; details: for relative remaining current: Fig 3I single experiments
T1 construct: expressed in transfected cells
Experimental: (§1) Our Isc results are consistent with VX-445 inhibiting KCa3.1 in HBEs. To directly assess this possibility, we initially carried out whole-cell patch-clamp studies on undifferentiated HBEs. […] Upon application of 10 µM VX-445, a majority of this current was inhibited, averaging 87 ± 4% (n = 3, P < 0.005; Fig. 3B). A summary of the current–voltage (I–V) relationship—normalized to cell capacitance—is shown in Fig. 3C, which also includes the whole-cell I–V in the presence of Tram-34. […] To ensure isolation of KCa3.1 currents and to more fully characterize this VX-445-dependent inhibition of KCa3.1, we utilized HEK cells heterologously expressing KCa3.1 (HEK-KCa3.1). Initially, we confirmed our results from HBEs, using whole-cell recordings, as above. […] In seven experiments, this inhibition averaged 58 ± 7% (P < 0.005). […] It is well recognized that drugs are carried to their targets in the blood bound to albumin, which ranges from 3.4 to 5.4%. Thus, we determined whether VX-445 (10 µM) would inhibit KCa3.1 expressed in HEK cells in the presence of 3.4% albumin. In four experiments, VX-445 inhibited an average of 51 ± 17% of the whole-cell KCa3.1 current, which is not different from that observed in the absence of albumin. To confirm the direct effect of VX-445 on KCa3.1, we utilized the excised, inside-out patch-clamp technique. The patch was then exposed to DCEBIO (100 µM) to further activate the channels ([34–37])—analogous to our Isc studies in HBEs. […] In three experiments, VX-445 inhibited an average of 63 ± 6% of the KCa3.1 current. Based on these experiments, we determined the apparent inhibitory constant, Ki for VX-445. For these experiments, patches were excised into saturating Ca^2+ (3 µM) to ensure maximal KCa3.1 activation. These studies were carried out in the absence of DCEBIO to eliminate the possibility that the inhibition observed was due to competition for the DCEBIO-binding site.
(§2) HEK cells stably expressing KCa3.1 (IK1, SK4), KCa2.3 (SK3), and KCa2.2 (SK2) were generated and cultured as previously described by us ([37], [66–71]).
(§3) HEK cells expressing the channel of interest were plated onto poly-L-lysine-coated glass coverslips 1–2 days prior to patch-clamp analysis. Electrophysiological recordings in the excised, inside-out, and whole-cell patch-clamp configurations were performed as recently described ([14]). For excised patch-clamp recordings, the pipette solution contained (in mM): 140 K-gluconate, 5 KCl, 1 CaCl2, 1 MgCl2, and 10 HEPES. The pH was adjusted to 7.2 with KOH. The bath solution contained (in mM): 145 K-gluconate, 5 KCl, 1.3 MgCl2, 10 HEPES, and 1 EGTA. Sufficient CaCl2 was added to obtain the desired free Ca^2+ concentration at a pH of 7.2 (adjusted with KOH). When recording KCa3.1 channels, ATP (300 µM) was added to the bath to diminish channel rundown ([73]). All recordings were carried out at a voltage of −100 mV, referenced to the extracellular compartment, as is standard. The apparent Ki and Hill coefficient for each CFTR corrector on KCa3.1, KCa2.3, and KCa2.2 were determined during a continuous recording by step-wise addition of increasing concentrations of compound and fitting the resultant relative remaining current to a Hill equation (Prism v. 10.1.0). The zero current level was determined by the addition of a 0 Ca^2+ solution (zero-added Ca^2+ plus 1 mM EGTA) at the end of the experiment. In the case of KCa3.1, TRAM-34, a known inhibitor of KCa3.1 ([45]), was used to confirm expression of the channel. For whole-cell experiments, pipettes contained (in mM): 145 K-gluconate, 10 EGTA, 7.5 CaCl2, 2 MgCl2, 3 mM NaATP, and 10 HEPES. The bath solution contained (in mM): 140 K-gluconate, 5 KCl, 1.0 MgCl2, 10 HEPES, and 2 CaCl2. Current–voltage relationships were determined by stepping from a holding potential of −80 mV to +80 mV in 20 mV increments for 400 ms. […]

[2] = target: T1, KCa3.1; assay: Whole-cell patch-clamp on HEK cells heterologously expressing KCa3.1; type: cell-based; details: HEK293, VX-445 10 µM
Experimental: as §1, §2, §3

[3] = design: method as in PMID 36371965; details: patients with CF, converted; cited from earlier work

## Cc1nn(C)cc1S(=O)(=O)NC(=O)c1ccc(-n2ccc(OCC(C)(C)C(F)(F)F)n2)nc1N1C[C@@H](C)CC1(C)C [VX-445, elexacaftor]
[1]; 3 µM free Ca2+, absence of DCEBIO
  Hill coefficient: 1.2
[1]; 3 µM free Ca2+, absence of DCEBIO, Hill fit, n = 4, read-out: apparent Ki
  Ki: 8 ± 2 µM
[1]; 10 µM compound after DCEBIO 100 µM, 1 µM free Ca2+, three experiments, read-out: inhibition of KCa3.1 current in excised patch
  inhibition at 10 µM: 63 ± 6%
[1]; KCa3.1 versus KCa2.2 and KCa2.3
  selectivity among KCNN gene family members: exhibits selectivity for KCa3.1 over KCa2.x channels
[1]; [VX-445] 0.1
  relative remaining current: 100
[1]; [VX-445] 1
  relative remaining current: 86 and 95 and 100 and 83
[1]; [VX-445] 3
  relative remaining current: 68 and 80 and 93 and 62
[2]; four experiments, read-out: inhibition of whole-cell KCa3.1 current in the presence of 3.4% albumin
  inhibition at 10 µM: 51 ± 17%
[2]; seven experiments, read-out: inhibition of whole-cell KCa3.1 current
  inhibition at 10 µM: 58 ± 7%
[3]
  mean concentration in nasal brushing cell lysates, upper end: ~9 µM
